Test results as given in US7563903B2, “Acylaminothiazole derivatives, their preparation and their therapeutic use” (Sanofi-Aventis, priority 2003, dated 2009).
Values joined by “and” are separate entries in the source; they are usually repeats but may differ in a detail not shown here. Identical values can stand only once.

Q: With `CCC[C@H](NC(=O)[C@H](O)C(CC)CC)C(=O)Nc1ncc(-c2ccccc2COc2ccccc2)s1` (racemic) [Compound No. 42, (2R)-3-ethyl-2-hydroxy-N-{(1S)-1-[({5-[2-(phenoxymethyl)phenyl]-1,3-thiazol-2-yl}amino)carbonyl]butyl}pentanamide] as the compound, how does the melting point read?
A: 67.4 °C and 67.5 °C

Q: For `CCC[C@H](NC(=O)C(O)CC(C)C)C(=O)Nc1ncc(-c2ccccc2COC2CCCCC2)s1` (stereo partly drawn) [Compound No. 4, N-((1S)-1-{[(5-{2-[(cyclohexyloxy)methyl]phenyl}-1,3-thiazol-2-yl)amino]carbonyl}butyl)-2-hydroxy-4-methylpentanamide], which melting point is on record?
A: 85 °C

Q: With `CCC[C@H](NC(=O)[C@@H](O)C(C)(C)C)C(=O)Nc1ncc(-c2ccccc2COc2ccccc2)s1` [Compound No. 9, (2S)-2-{[(2S)-2-hydroxy-3,3-dimethylbutanoyl]amino}-N-{5-[2-(phenoxymethyl)phenyl]-1,3-thiazol-2-yl}pentanamide] as the compound, how does the melting point read?
A: 84 °C

Q: For `CCC[C@H](NC(=O)[C@@H](O)C(CC)CC)C(=O)Nc1ncc(-c2ccccc2COc2ccccc2)s1` [Compound No. 43, (2S)-3-ethyl-2-hydroxy-N-{(1S)-1-[({5-[2-(phenoxymethyl)phenyl]-1,3-thiazol-2-yl}amino)carbonyl]butyl}pentanamide], which melting point is on record?
A: 122.5 °C

Q: Which melting point does the source give for `CCC[C@H](NC(=O)[C@@H](O)C(C)(C)C)C(=O)Nc1ncc(-c2ccccc2COc2ccncc2)s1` [Compound No. 70, (2S)-2-{[(2S)-2-hydroxy-3,3-dimethylbutanoyl]amino}-N-(5-{2-[(4-pyridinyloxy)methyl]phenyl}-1,3-thiazol-2-yl)pentanamide] here?
A: 112.7 °C

Q: Which melting point does the source give for `CCC[C@H](NC(=O)[C@@H](O)C(C)(C)C)C(=O)Nc1ncc(-c2ccccc2COC(C)C)s1` [compound 11, (2S)-2-{[(2S)-2-hydroxy-3,3-dimethylbutanoyl]amino}-N-{5-[2-(isopropoxymethyl)phenyl]-1,3-thiazol-2-yl}pentanamide] here?
A: 63 °C

Q: With `CCC[C@H](NC(=O)CC(C)(C)C)C(=O)Nc1ncc(-c2ccccc2COC(C)C)s1` [compound 13, (2S)-2-[(3,3-dimethylbutanoyl)amino]-N-{5-[2-(isopropoxymethyl)phenyl]-1,3-thiazol-2-yl}pentanamide] as the compound, how does the melting point read?
A: 77 °C

Q: With `CCC[C@H](NC(=O)C(=O)C(C)CC)C(=O)Nc1ncc(-c2ccccc2COC(C)C)s1` (stereo partly drawn) [compound 14, N-{(1S)-1-[({5-[2-(isopropoxymethyl)phenyl]-1,3-thiazol-2-yl}amino)carbonyl]butyl}-3-methyl-2-oxopentanamide] as the compound, how does the melting point read?
A: 112 °C

Q: With `CCC[C@H](NC(=O)[C@@H](O)C(C)(C)C)C(=O)Nc1ncc(-c2ccccc2COCC)s1` [compound 15, (2S)—N-{5-[2-(ethoxymethyl)phenyl]-1,3-thiazol-2-yl}-2-{[(2S)-2-hydroxy-3,3-dimethylbutanoyl]amino}pentanamide] as the compound, how does the melting point read?
A: 148 °C

Q: Which melting point does the source give for `CCC[C@H](NC(=O)[C@@H](O)C(C)(C)C)C(=O)Nc1ncc(-c2ccccc2COc2cccc(OC(F)(F)F)c2)s1` [compound 17, (2S)-2-{[(2S)-2-hydroxy-3,3-dimethylbutanoyl]amino}-N-[5-(2-{[3-(trifluoromethoxy)phenoxy]methyl}phenyl)-1,3-thiazol-2-yl]pentanamide] here?
A: 114 °C

Q: With `CCC[C@H](NC(=O)[C@@H](O)C(C)(C)C)C(=O)Nc1ncc(-c2ccc(OC)cc2COc2ccccc2)s1` [compound 18, (2S)-2-{[(2S)-2-hydroxy-3,3-dimethylbutanoyl]amino}-N-{5-[4-methoxy-2-(phenoxymethyl)phenyl]-1,3-thiazol-2-yl}pentanamide] as the compound, how does the melting point read?
A: 117 °C

Q: For `CCC[C@H](NC(=O)[C@@H](O)C(C)(C)C)C(=O)Nc1ncc(-c2ccccc2COc2ccccc2F)s1` [compound 19, (2S)—N-(5-{2-[(2-fluorophenoxy)methyl]phenyl}-1,3-thiazol-2-yl)-2-{[(2S)-2-hydroxy-3,3-dimethylbutanoyl]amino}pentanamide], which melting point is on record?
A: 92 °C

Q: With `CCC[C@H](NC(=O)[C@@H](O)C(C)(C)C)C(=O)Nc1ncc(-c2ccccc2COc2ccccc2CC)s1` [compound 20, (2S)—N-(5-{2-[(2-ethylphenoxy)methyl]phenyl}-1,3-thiazol-2-yl)-2-{[(2S)-2-hydroxy-3,3-dimethylbutanoyl]amino}pentanamide] as the compound, how does the melting point read?
A: 107 °C

Q: With `CCC[C@H](NC(=O)[C@@H](O)C(C)(C)C)C(=O)Nc1ncc(-c2ccccc2COc2cccc(OC)c2OC)s1` [compound 23, (2S)—N-(5-{2-[(2,3-dimethoxyphenoxy)methyl]-phenyl}-1,3-thiazol-2-yl)-2-{[(2S)-2-hydroxy-3,3-dimethylbutanoyl]amino}pentanamide] as the compound, how does the melting point read?
A: 99 °C

Q: For `CCC[C@H](NC(=O)[C@@H](O)C(C)(C)C)C(=O)Nc1ncc(-c2ccccc2COc2ccccc2OC(F)(F)F)s1` [compound 24, (2S)-2-{[(2S)-2-hydroxy-3,3-dimethylbutanoyl]amino}-N-[5-(2-{[2-(trifluoromethoxy)phenoxy]methyl}phenyl)-1,3-thiazol-2-yl]pentanamide], which melting point is on record?
A: 66 °C

Q: With `CCC[C@H](NC(=O)[C@@H](O)C(C)(C)C)C(=O)Nc1ncc(-c2ccccc2COc2cc(OC)cc(OC)c2)s1` [compound 25, (2S)—N-(5-{2-[(3,5-dimethoxyphenoxy)methyl]-phenyl}-1,3-thiazol-2-yl)-2-{[(2S)-2-hydroxy-3,3-dimethylbutanoyl]amino}pentanamide] as the compound, how does the melting point read?
A: 66.5 °C

Q: For `CCC[C@H](NC(=O)[C@@H](O)C(C)(C)C)C(=O)Nc1ncc(-c2ccccc2COc2cccc(C)c2C)s1` [compound 26, (2S)—N-(5-{2-[(2,3-dimethylphenoxy)methyl]phenyl}-1,3-thiazol-2-yl)-2-{[(2S)-2-hydroxy-3,3-dimethylbutanoyl]amino}pentanamide], which melting point is on record?
A: 88 °C

Q: Which melting point does the source give for `CCC[C@H](NC(=O)[C@@H](O)C(C)(C)C)C(=O)Nc1ncc(-c2ccccc2COc2ccc(C)c(C)c2)s1` [compound 27, (2S)—N-(5-{2-[(3,4-dimethylphenoxy)methyl]phenyl}-1,3-thiazol-2-yl)-2-{[(2S)-2-hydroxy-3,3-dimethylbutanoyl]amino}pentanamide] here?
A: 89 °C

Q: With `CCC[C@H](NC(=O)[C@@H](O)C(C)(C)C)C(=O)Nc1ncc(-c2ccccc2COc2c(C)cccc2C)s1` [compound 28, (2S)—N-(5-{2-[(2,6-dimethylphenoxy)methyl]phenyl}-1,3-thiazol-2-yl)-2-{[(2S)-2-hydroxy-3,3-dimethylbutanoyl]amino}pentanamide] as the compound, how does the melting point read?
A: 87 °C

Q: Which melting point does the source give for `CCC[C@H](NC(=O)[C@@H](O)C(C)(C)C)C(=O)Nc1ncc(-c2ccccc2COc2cccc(Cl)c2)s1` [compound 29, (2S)—N-(5-{2-[(3-chlorophenoxy)methyl]phenyl}-1,3-thiazol-2-yl)-2-{[(2S)-2-hydroxy-3,3-dimethylbutanoyl]amino}pentanamide] here?
A: 169 °C

Q: Which melting point does the source give for `CCC[C@H](NC(=O)[C@@H](O)C(C)(C)C)C(=O)Nc1ncc(-c2ccccc2COc2ccc(OC)c(OC)c2)s1` [compound 30, (2S)—N-(5-{2-[(3,4-dimethoxyphenoxy)methyl]phenyl}-1,3-thiazol-2-yl)-2-{[(2S)-2-hydroxy-3,3-dimethylbutanoyl]amino}pentanamide] here?
A: 81.5 °C

Q: For `CCC[C@H](NC(=O)[C@@H](O)C(C)(C)C)C(=O)Nc1ncc(-c2ccccc2COc2c(OC)cccc2OC)s1` [compound 31, (2S)—N-(5-{2-[(2,6-dimethoxyphenoxy)methyl]phenyl}-1,3-thiazol-2-yl)-2-{[(2S)-2-hydroxy-3,3-dimethylbutanoyl]amino}pentanamide], which melting point is on record?
A: 69.5 °C

Q: With `CCC[C@H](NC(=O)[C@@H](O)C(C)(C)C)C(=O)Nc1ncc(-c2ccccc2COc2ccc(C)cc2C)s1` [compound 32, (2S)—N-(5-{2-[(2,4-dimethylphenoxy)methyl]phenyl}-1,3-thiazol-2-yl)-2-{[(2S)-2-hydroxy-3,3-dimethylbutanoyl]amino}pentanamide] as the compound, how does the melting point read?
A: 86 °C

Q: For `CCC[C@H](NC(=O)[C@@H](O)C(C)(C)C)C(=O)Nc1ncc(-c2ccccc2COc2cc(C)ccc2C)s1` [compound 33, (2S)—N-(5-{2-[(2,5-dimethylphenoxy)methyl]phenyl}-1,3-thiazol-2-yl)-2{[(2S)-2-hydroxy-3,3-dimethylbutanoyl]amino}pentanamide], which melting point is on record?
A: 87 °C

Q: Which melting point does the source give for `CCC[C@H](NC(=O)[C@@H](O)C(C)(C)C)C(=O)Nc1nc(C)c(-c2ccccc2COc2ccccc2)s1` [compound 34, (2S)-2-{[(2S)-2-hydroxy-3,3-dimethylbutanoyl]amino}-N-{4-methyl-5-[2-(phenoxymethyl)phenyl]-1,3-thiazol-2-yl}pentanamide] here?
A: 99 °C

Q: With `CCC[C@@H](NC(=O)[C@@H](O)C(C)(C)C)C(=O)Nc1ncc(-c2ccccc2COc2ccccc2)s1` [compound 35, (2R)-2-{[(2S)-2-hydroxy-3,3-dimethylbutanoyl]amino}-N-{5-[2-(phenoxymethyl)phenyl]-1,3-thiazol-2-yl}pentanamide] as the compound, how does the melting point read?
A: 78.5 °C

Q: With `CCC[C@H](NC(=O)[C@@H](O)C(C)(C)C)C(=O)Nc1ncc(-c2ccccc2COc2ccccc2C)s1` [compound 36, (2S)-2-{[(2S)-2-hydroxy-3,3-dimethylbutanoyl]amino}-N-(5-{2-[(2-methylphenoxy)methyl]phenyl}-1,3-thiazol-2-yl}pentanamide] as the compound, how does the melting point read?
A: 96.5 °C

Q: With `CCC[C@H](NC(=O)[C@@H](O)C(C)C)C(=O)Nc1ncc(-c2ccccc2COc2ccccc2)s1` [compound 37, (2S)-2-{[(2S)-2-hydroxy-3-methylbutanoyl]amino}-N-{5-[2-(phenoxymethyl)phenyl]-1,3-thiazol-2-yl}pentanamide] as the compound, how does the melting point read?
A: 141 °C

Q: For `CCC[C@H](NC(=O)C(O)C(C)(C)C)C(=O)Nc1ncc(-c2ccccc2COc2ccccc2OC)s1` (stereo partly drawn) [compound 38, (2S)-2-[(2-hydroxy-3,3-dimethylbutanoyl)amino]-N-(5-{2-[(2-methoxyphenoxy)methyl]phenyl}-1,3-thiazol-2-yl}pentanamide], which melting point is on record?
A: 85 °C

Q: For `CCC[C@H](NC(=O)C(O)C(C)(C)C)C(=O)Nc1ncc(-c2ccccc2COc2ccccc2OCC)s1` (stereo partly drawn) [compound 39, (2S)—N-(5-{2-[(2-ethoxyphenoxy)methyl]phenyl}-1,3-thiazol-2-yl)-2-[(2-hydroxy-3,3-dimethylbutanoyl)amino]pentanamide], which melting point is on record?
A: 88 °C
